# Laboratory results from patent US20050165070A1, “Compositions with a biostimulating activity” (priority 2002, published 2005).
# Assays:
# courgettes cv. Diamone = assay: Biostimulating activity on transplanted courgette seedlings in field, fruit yield; format: in vivo; details: for Fruit per lot: treatment repeated every 10 days, harvest June 11-August 27, average per lot; for Increase (%) of fruit per lot: with respect to non-treated Thesis F
# From the text: The following examples are provided for merely illustrative purpose and in no way intend to limit the scope of the present invention.
# When the biological activity experimentally found is higher than the value of E, said activity should be considered as a synergic effect.
# An amount of 50 g of each compound under examination (thiazolidine-4-carboxylic acid (compound I) and N-acyl-thiazolidine-4-carboxylic acid (compound II)) were dispersed in water (800 cc) and vigorously stirred. An excess of 5%, with respect to the stoichiometric quantity, of sodium bicarbonate, was then added in portions. 150 g of a non-ionic surface-active agent were added to favour application to the leaves. The whole mixture was brought to a volume of 1 liter by the addition of water, in order to obtain solutions of each compound with a concentration of 50 g/liter.
# Assessment of the biostimulating activity of compound (I), compound (II) and their synergic mixture.
# Seedlings of courgettes cv. Diamone, sown and cultivated in a hot greenhouse, were transplanted in a field (May 11, Leggiuno, (Varese)—Italy).
# The theses were randomly arranged in lots with four repetitions for each thesis. Each lot consisted of six plants in rows situated at a distance of 1 meter from each other, and at a distance of 1 meter from each other in the same row.
# Weeding was performed before the transplant, using 1 kg/ha of trifluralin (volume 550 l/ha).
# At the moment transplanting, the seedlings have a common degree of vegetative development.
# In order to minimize transplant stress, the seedlings planted were treated respectively with: • Thesis A: with compound (I) (ATC) at a dose of 5 g/hl; • Thesis B: with compound (I) (ATC) at a dose of 10 g/hl; • Thesis C: with compound (II) (AATC) at a dose of 5 g/hl; • Thesis D: with compound (II) (AATC) at a dose of 10 g/hl; • Thesis E: with compound (I) (ATC) at a dose of 5 g/hl in a mixture with compound (II) (AATC) at a dose of 5 g/hl; • Thesis F: no biostimulating treatment.
# Said treatment was subsequently repeated every 10 days, in a preventive manner, in order to oppose any possible thermal or water stress or stress due to vegetative development. Harvesting was effected from June 11 to August 27, and the yield increases indicated in Table 1, were registered in the treated theses (A, B, C, D, E), with respect to the non-treated Thesis F. The yields are obtained from the average amount of fruit obtained in each lot during the above-mentioned harvesting period (June 11-August 27).
# peppers cv. Pathos = assay: Biostimulating effect on transplanted pepper seedlings in tunnel, production yield; format: in vivo; details: 10 g/hl; for Berries kg per lot: repeated every 10 days, harvest July 29-August 29; for Increase (%) of berries kg per lot: versus not treated Thesis E
# From the text: The whole mixture was brought to a volume of 1 liter by the addition of water, in order to obtain solutions of each compound with a concentration of 50 g/liter. Determination of the amplification of the biostimulating effect obtained by applying compound (I) in the presence of a solution of proline. Seedlings of peppers cv. Pathos were transplanted in a tunnel (April 16, AT). The lots were distributed according to the random block scheme with 5 repetitions per thesis. Each repetition consisted of 15 plants. At the moment of transplanting, the seedlings have a common degree of vegetative development. […] Said treatment was subsequently repeated every 10 days, in a preventive manner, in order to oppose any possible thermal or water stress or stress due to vegetative development. Harvesting was effected from July 29 for the following 30 days, and a production increase was registered in theses B and D, with respect to theses A and C, as indicated in Table 2. The yields are obtained from the average production obtained during the above harvesting period (July 29-August 29).
Compound,Fruit per lot (courgettes cv. Diamone; 5 g/hl),Increase (%) of fruit per lot (courgettes cv. Diamone; 5 g/hl),Fruit per lot (courgettes cv. Diamone; 10 g/hl),Increase (%) of fruit per lot (courgettes cv. Diamone; 10 g/hl),Berries kg per lot (peppers cv. Pathos) [kg per lot],Increase (%) of berries kg per lot (peppers cv. Pathos)
"CC(=O)N1CSCC1C(=O)O (stereo not drawn) [AATC, N-acetylthiazolidine-4-carboxylic acid]",102,+5.2%,109,+12.4%,26.40,+6.9%
"O=C(O)[C@@H]1CSCN1 [ATC, R-(−)-thiazolidine-4-carboxylic acid]",100,+3.1%,105,+8.2%,25.80,+4.5%
